Assay results from the supplement of paper PMC10307832.

Assays:
Test in all cases: relative viability (nuclei count vs DMSO), 5 days (fraction); higher = more cells survive
ChaGo-K-1 = system: ChaGo-K-1
In short: (§1)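 Nuclei were stained with Hoechst during a one-step fixation (final 0.05% Triton X-100, 1% formaldehyde, 1 ug/ml Hoechst) carried out 5 days after dosing, then counted on 4× images. The cells, lung cancer lines in 1536-well plates, had been dosed by pin tool the day after seeding with one drug alone or a fixed anchor-drug dose plus five library-drug doses (not always all listed) in √10 steps. Relative viability is the nuclei count in treated wells divided by that in vehicle wells, and each value is the median of duplicate plates.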

EMC-BAC-2 = system: EMC-BAC-2
In short: as §1

EPLC-272H = system: EPLC-272H
In short: as §1

HCC-78 = system: HCC-78
In short: as §1

HCC-827 = system: HCC-827
In short: as §1

LCLC-103H = system: LCLC-103H
In short: as §1

LK-2 = system: LK-2
In short: as §1

LOU-NH91 = system: LOU-NH91
In short: as §1

LU99A = system: LU99A
In short: as §1

LXF-289 = system: LXF-289
In short: as §1

NCI-H1563 = system: NCI-H1563
In short: as §1

NCI-H1666 = system: NCI-H1666
In short: as §1

NCI-H1975 = system: NCI-H1975
In short: as §1

NCI-H2085 = system: NCI-H2085
In short: as §1

NCI-H2126 = system: NCI-H2126
In short: as §1

NCI-H23 = system: NCI-H23
In short: as §1

NCI-H2405 = system: NCI-H2405
In short: as §1

NCI-H3122 = system: NCI-H3122
In short: as §1

NCI-H322M = system: NCI-H322M
In short: as §1

RERF-LC-KJ = system: RERF-LC-KJ
In short: as §1

SK-LU-1 = system: SK-LU-1
In short: as §1

SW 1573 = system: SW 1573
In short: as §1

SW 900 = system: SW 900
In short: as §1

NC(=O)Nc1cc(-c2cccc(F)c2)sc1C(=O)N[C@H]1CCCNC1 [AZD7762] + COc1cc2c(Oc3ccc(NC(=O)C4(C(=O)Nc5ccc(F)cc5)CC4)cc3F)ccnc2cc1OCCCN1CCOCC1 [Foretinib] (partner 0.25 µM)
relative viability (ChaGo-K-1; first compound 0.01 µM): 0.924
relative viability (ChaGo-K-1; first compound 0.03162 µM): 0.937
relative viability (ChaGo-K-1; first compound 0.1 µM): 1.02
relative viability (ChaGo-K-1; first compound 0.3162 µM): 0.899
relative viability (ChaGo-K-1; first compound 1 µM): 0.976
relative viability (EMC-BAC-2; first compound 0.01 µM): 1.08
relative viability (EMC-BAC-2; first compound 0.03162 µM): 1
relative viability (EMC-BAC-2; first compound 0.1 µM): 1.08
relative viability (EMC-BAC-2; first compound 0.3162 µM): 1.04
relative viability (EMC-BAC-2; first compound 1 µM): 0.89
relative viability (EPLC-272H; first compound 0.01 µM): 0.676
relative viability (EPLC-272H; first compound 0.03162 µM): 0.654
relative viability (EPLC-272H; first compound 0.1 µM): 0.654
relative viability (EPLC-272H; first compound 0.3162 µM): 0.615
relative viability (EPLC-272H; first compound 1 µM): 0.256
relative viability (HCC-78; first compound 0.01 µM): 0.619
relative viability (HCC-78; first compound 0.03162 µM): 0.611
relative viability (HCC-78; first compound 0.1 µM): 0.589
relative viability (HCC-78; first compound 0.3162 µM): 0.682
relative viability (HCC-78; first compound 1 µM): 0.578
relative viability (HCC-827; first compound 0.01 µM): 0.975
relative viability (HCC-827; first compound 0.03162 µM): 1.06
relative viability (HCC-827; first compound 0.1 µM): 1.02
relative viability (HCC-827; first compound 0.3162 µM): 1.08
relative viability (HCC-827; first compound 1 µM): 0.853
relative viability (LCLC-103H; first compound 0.01 µM): 0.815
relative viability (LCLC-103H; first compound 0.03162 µM): 0.829
relative viability (LCLC-103H; first compound 0.1 µM): 0.82
relative viability (LCLC-103H; first compound 0.3162 µM): 0.764
relative viability (LCLC-103H; first compound 1 µM): 0.823
relative viability (LK-2; first compound 0.01 µM): 1.38
relative viability (LK-2; first compound 0.03162 µM): 1.34
relative viability (LK-2; first compound 0.1 µM): 1.11
relative viability (LK-2; first compound 0.3162 µM): 0.864
relative viability (LK-2; first compound 1 µM): 0.722
relative viability (LOU-NH91; first compound 0.01 µM): 0.925
relative viability (LOU-NH91; first compound 0.03162 µM): 0.947
relative viability (LOU-NH91; first compound 0.1 µM): 0.96
relative viability (LOU-NH91; first compound 0.3162 µM): 0.93
relative viability (LOU-NH91; first compound 1 µM): 0.737
relative viability (LU99A; first compound 0.01 µM): 0.798
relative viability (LU99A; first compound 0.03162 µM): 0.828
relative viability (LU99A; first compound 0.1 µM): 0.791
relative viability (LU99A; first compound 0.3162 µM): 0.822
relative viability (LU99A; first compound 1 µM): 0.537
relative viability (LXF-289; first compound 0.01 µM): 0.991
relative viability (LXF-289; first compound 0.03162 µM): 1.05
relative viability (LXF-289; first compound 0.1 µM): 1.05
relative viability (LXF-289; first compound 0.3162 µM): 1.01
relative viability (LXF-289; first compound 1 µM): 1.08
relative viability (NCI-H1563; first compound 0.01 µM): 1.04
relative viability (NCI-H1563; first compound 0.03162 µM): 0.967
relative viability (NCI-H1563; first compound 0.1 µM): 0.974
relative viability (NCI-H1563; first compound 0.3162 µM): 0.94
relative viability (NCI-H1563; first compound 1 µM): 0.83
relative viability (NCI-H1666; first compound 0.01 µM): 1.03
relative viability (NCI-H1666; first compound 0.03162 µM): 1.07
relative viability (NCI-H1666; first compound 0.1 µM): 1.14
relative viability (NCI-H1666; first compound 0.3162 µM): 1.12
relative viability (NCI-H1666; first compound 1 µM): 0.849
relative viability (NCI-H1975; first compound 0.01 µM): 0.926
relative viability (NCI-H1975; first compound 0.03162 µM): 0.943
relative viability (NCI-H1975; first compound 0.1 µM): 0.964
relative viability (NCI-H1975; first compound 0.3162 µM): 0.854
relative viability (NCI-H1975; first compound 1 µM): 0.624
relative viability (NCI-H2085; first compound 0.01 µM): 0.946
relative viability (NCI-H2085; first compound 0.03162 µM): 0.938
relative viability (NCI-H2085; first compound 0.1 µM): 0.865
relative viability (NCI-H2085; first compound 0.3162 µM): 1.21
relative viability (NCI-H2085; first compound 1 µM): 0.697
relative viability (NCI-H2126; first compound 0.01 µM): 1.23
relative viability (NCI-H2126; first compound 0.03162 µM): 1.19
relative viability (NCI-H2126; first compound 0.1 µM): 1.2
relative viability (NCI-H2126; first compound 0.3162 µM): 1.28
relative viability (NCI-H2126; first compound 1 µM): 1.26
relative viability (NCI-H23; first compound 0.01 µM): 0.886
relative viability (NCI-H23; first compound 0.03162 µM): 1.09
relative viability (NCI-H23; first compound 0.1 µM): 0.976
relative viability (NCI-H23; first compound 0.3162 µM): 1.11
relative viability (NCI-H23; first compound 1 µM): 0.366
relative viability (NCI-H2405; first compound 0.01 µM): 1.13
relative viability (NCI-H2405; first compound 0.03162 µM): 1.07
relative viability (NCI-H2405; first compound 0.1 µM): 1.05
relative viability (NCI-H2405; first compound 0.3162 µM): 1.03
relative viability (NCI-H2405; first compound 1 µM): 0.67
relative viability (NCI-H3122; first compound 0.01 µM): 0.911
relative viability (NCI-H3122; first compound 0.03162 µM): 0.905
relative viability (NCI-H3122; first compound 0.1 µM): 0.995
relative viability (NCI-H3122; first compound 0.3162 µM): 0.996
relative viability (NCI-H3122; first compound 1 µM): 0.996
relative viability (NCI-H322M; first compound 0.01 µM): 0.979
relative viability (NCI-H322M; first compound 0.03162 µM): 1.09
relative viability (NCI-H322M; first compound 0.1 µM): 1.09
relative viability (NCI-H322M; first compound 0.3162 µM): 0.601
relative viability (NCI-H322M; first compound 1 µM): 0.315
relative viability (RERF-LC-KJ; first compound 0.01 µM): 0.882
relative viability (RERF-LC-KJ; first compound 0.03162 µM): 0.891
relative viability (RERF-LC-KJ; first compound 0.1 µM): 0.965
relative viability (RERF-LC-KJ; first compound 0.3162 µM): 0.944
relative viability (RERF-LC-KJ; first compound 1 µM): 0.97
relative viability (SK-LU-1; first compound 0.01 µM): 1.01
relative viability (SK-LU-1; first compound 0.03162 µM): 0.737
relative viability (SK-LU-1; first compound 0.1 µM): 0.461
relative viability (SK-LU-1; first compound 0.3162 µM): 0.185
relative viability (SK-LU-1; first compound 1 µM): 0.145
relative viability (SW 1573; first compound 0.01 µM): 0.845
relative viability (SW 1573; first compound 0.03162 µM): 0.866
relative viability (SW 1573; first compound 0.1 µM): 0.99
relative viability (SW 1573; first compound 0.3162 µM): 1.12
relative viability (SW 1573; first compound 1 µM): 1.02
relative viability (SW 900; first compound 0.01 µM): 0.777
relative viability (SW 900; first compound 0.03162 µM): 0.84
relative viability (SW 900; first compound 0.1 µM): 1.29
relative viability (SW 900; first compound 0.3162 µM): 0.825
relative viability (SW 900; first compound 1 µM): 0.533
